These results are taken from publication PMC4783263 (Molecular pharmaceutics, 2016).

Data set [1] relates to OVCAR-3 (human ovarian adenocarcinoma). As to conditions: 150 mg/kg of ABZ 3 times a week for 4 weeks through IP; cited from earlier work.
Another data set has as its system SK-OV-3 cells. As to conditions: read-out: IC50 on SK-OV-3 cells; ABZ formulated in ethanol; cited from earlier work.
The test system of the next data set is glioblastoma multiforme. As to conditions: daily oral doses (50 and 150 mg/kg) of ABZ tablets mixed with 50% sesame oil; cited from earlier work.
The subject of data set [2] is SKHEP-1 (human liver adenocarcinoma) xenografts. As to conditions: ABZ in sesame oil, xenografts on the flank of mice; cited from earlier work.
The conditions of data set [3]: mice, repeated oral dosing of 30–40 mg/kg/day for 4–90 days; cited from earlier work.
Details of data set [4]: species or system Swiss Webster mice. As to conditions: mouse, in vivo; for AUC / Cmax / tmax: 3.2 mg/kg.
For data set [5] the following is noted: cited from earlier work.
The test system of data set [6] is Salmonella typhimurium TA1535. Nature of the data set: Ames test. As to conditions: TA 1535, −S9, 1.5 µg/plate.
Data set [7] relates to Salmonella typhimurium TA100. Nature of the data set: Ames test. As to conditions: TA 100, −S9, 1.5 µg/plate. In general terms: In the Ames test, an excess of revertant colonies over the control signals mutagenicity.
For data set [8] the following is noted: in vivo; cited from earlier work.

Molecules are shown by their SMILES. Values after ≈ are worked out from the molar mass of the structure shown. Where two headings read alike, the source gives them in different places.

As for `CCCSc1ccc2nc(NC(=O)OC)[nH]c2c1` [ABZ, Albendazole], the “malignant ascites (in words)” value in data set [1] was “suppression of malignant ascites was observed”. Besides, in the data set with SK-OV-3 cells, the IC50 was 3.88 µM. Besides, the “mouse survival (in words)” value with glioblastoma multiforme is on record as “moderate improvements in mouse survival”. Moreover, the “daily oral dose required to see an antitumor effect” value in data set [2] is listed as 300 mg/kg. Further, the “toxicity (in words)” value in data set [3] was “no significant signs of toxicity”.
As for `CCCS(=O)(=O)c1ccc2nc(NC(=O)OC)[nH]c2c1` [ABZSO2, Albendazole sulfone], in [4], the “Absolute Bioavailability” value worked out at 81%. In addition, in [4] (ip), the AUC stood at 2380 ng·h/mL, the Cmax was determined as 410 ± 70 ng/mL and the tmax is recorded as 2 h. In [4] (iv), this molecule showed an AUC of 2940 ng·h/mL, a Cmax of 500 ± 90 ng/mL and a tmax of 2 h.
In the case of `O=C1N2CN3C(=O)N4CN5C(=O)N6CN7C(=O)N8CN9C(=O)N%10CN%11C(=O)N%12CN%13C(=O)N%14CN1C1C2N2CN%15C(=O)N(CN%16C(=O)N(CN%17C(=O)N(CN%18C(=O)N(CN%19C(=O)N(CN%20C(=O)N(CN1C2=O)C%14C%13%20)C%12C%11%19)C%10C9%18)C8C7%17)C6C5%16)C4C3%15` (stereo not shown) [CB[7]], the entries for the “solubility in pure water” value in data set [5] (reported by Kim) and in [5] (reported by Nau) were 20 to 30 mM and 5 mM (≈ 5.81 mg/mL), respectively.
As for `[N-]=[N+]=[N-].[Na+]` [Sodium azide, Sodium Azide, reference compound], the “revertant colonies, positive control” value in data set [6] is reported as “Sodium azide 232 ± 6 colonies”; in data set [6] (listed as sodium azide), 232 colonies; in data set [7], “Sodium azide 167 ± 34 colonies”; in data set [7] (listed as sodium azide), 167 colonies.
`O=C(O)CCSC[C@H]1O[C@@H]2O[C@H]3[C@H](O)[C@@H](O)[C@@H](O[C@H]4[C@H](O)[C@@H](O)[C@@H](O[C@H]5[C@H](O)[C@@H](O)[C@@H](O[C@H]6[C@H](O)[C@@H](O)[C@@H](O[C@H]7[C@H](O)[C@@H](O)[C@@H](O[C@H]8[C@H](O)[C@@H](O)[C@@H](O[C@H]9[C@H](O)[C@@H](O)[C@@H](O[C@H]1[C@H](O)[C@H]2O)O[C@@H]9CSCCC(=O)O)O[C@@H]8CSCCC(=O)O)O[C@@H]7CSCCC(=O)O)O[C@@H]6CSCCC(=O)O)O[C@@H]5CSCCC(=O)O)O[C@@H]4CSCCC(=O)O)O[C@@H]3CSCCC(=O)O` [sugammadex]: in [8], the “effect on QT interval (in words)” value is recorded as “no relevant effects of the compound on QT interval”.

The term IC50 denotes the midpoint of a concentration-inhibition curve. By AUC is commonly meant concentration integrated over time. Higher therefore signals more exposure. By Cmax is commonly meant the peak of the concentration-time curve.
